Laboratory results: patent US20190142721A1, “COMPOSITION CONTAINING SUBSTANCE FOR REGULATING EXPRESSON OF ABH ANTIGENS” (AMOREPACIFIC CORPORATION, priority 2014, published 2019)

Key:
5α-reductase = biological target: T1, 5α-reductase (Homo sapiens, UniProt P31213); assay: Inhibitory effect on 5α-reductase activity: conversion of [14C]testosterone to [14C]dihydrotestosterone in HEK 293-5α R2 cells; assay type: cell-based; details: for Conversion rate (%): radioactivity at DHT region/total radioactivity, control group 48; for Conversion rate (%) / Inhibition rate (%): 2 μg/ml, 2 hours, HEK 293-5α R2 cells; for Inhibition rate (%): relative to conversion rate of control group
T1 construct: 3×FLAG; expressed in transfected cells; host or cells: HEK 293
T1 sequence (P31213 1-254): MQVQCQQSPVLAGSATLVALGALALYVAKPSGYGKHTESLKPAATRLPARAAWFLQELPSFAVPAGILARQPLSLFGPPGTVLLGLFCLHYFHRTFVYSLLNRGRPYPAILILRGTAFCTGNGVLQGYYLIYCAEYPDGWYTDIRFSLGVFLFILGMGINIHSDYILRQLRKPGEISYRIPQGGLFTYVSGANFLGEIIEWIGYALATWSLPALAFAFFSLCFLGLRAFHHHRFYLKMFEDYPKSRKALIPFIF
Description: In order to evaluate the inhibitory effect on the activity of 5α-reductase, the conversion rate from [^14C] testosterone to [^14C] dihydrotestosterone in HEK 293-5α R2 cells was measured. HEK 293 cells were transfected with p3×FLAG-CMV-5α R2, and the transfected HEK 293 cells (HEK 293-5α R2 cells) were seeded in a 24-well plate, 2.5×10^5 cells per well (Park et al., 2003, JDS. Vol. 31, pp 191-98). The next day, the used culture medium was replaced with a new culture medium containing an enzyme substrate and an inhibitor. The substrate of the culture medium used was 0.05 μCi [^14C]testosterone (Amersham Pharmacia Biotech, UK). […] At this time, for comparison, the negative control used was the group not containing any of the above test substances, while the positive control used was the group in which finasteride was added to the medium at 2 μg/ml and cultured under the same conditions. Subsequently, the culture medium was collected to extract estosterone with 800 μl of ethylacetate. The supernatant organic solvent phase was isolated and dried. The residue was dissolved in 50 μl of ethylacetate and developed on silica plastic sheet kieselgel 60 F254 using an ethylacetate-hexane (1:1) as a developing solvent. The plastic sheet was dried out in the air and measured in regards to the abundance of isotope using a BAS system. The dry plastic sheet together with an X-ray film was put in a bath cassette. After one week, the amount of isotope of testosterone and dihydrotestosterone remaining on the film was measured.

[1] = test system: reactive oxygen species (ROS); assay: Inhibition of formation of reactive oxygen species in UVB-exposed keratinocytes (DCF-DA fluorescence); assay type: cell-based, human; details: 2 μg/ml; for ROS, ratio to the ROS of the control group, 0 hr: 0 hr after exposure to 30 mJ/cm^2 of UVB, UVB + untreated 100; for ROS, ratio to the ROS of the control group, 2 hrs: 2 hrs after exposure to 30 mJ/cm^2 of UVB, UVB + untreated 325, untreated 244; for ROS, ratio to the ROS of the control group, 3 hrs: 3 hrs after exposure to 30 mJ/cm^2 of UVB, UVB + untreated 381, untreated 287
Description: 5×10^4 cells of Keratinocytes isolated from the human epidermal tissue were put in each well of a 24-well plate and immobilized for 24 hours. After the culture medium was removed, 100 μl of phosphate buffered saline (PBS) solution was added to each well. The keratinocytes were exposed to 30 mJ/cm^2 of ultraviolet radiation under an ultraviolet B (UV B) lamp (Model: F15T8, UV B 15 W, Sankyo Denki Co., Ltd., Japan). Each well was removed of the PBS solution and then supplied with 200 μl1 of the keratinocyte culture medium. The well was treated with 2 μg/ml of 1,3-dicaffeoylquinic acid, 1,5-dicaffeoylquinic acid and amentoflavone as the test substances, respectively. Then, the quantity of the reactive oxygen species (ROS) increased by the UV stimulation was determined at defined time intervals. At this time, for comparison, the quantity of reactive oxygen species was also measured for those not treated with test substance (untreated) and not stimulated with ultraviolet rays and those subjected to ultraviolet stimulation without treatment of the test substance. The quantity of ROS was quantified by referring to Tan's method for measuring the fluorescence of dichlorofluorescin diacetate (DCF-DA) oxidized by ROS (Tan et al., 1998, J. Cell Biol. Vol. 141, pp 1423-1432).

PGE-2 = assay: Decrease in expression of skin inflammatory factor PGE-2 in UVB-exposed keratinocytes (ELISA); assay type: cell-based, human; details: 2 μg/ml, 16 hours, keratinocytes after UVB exposure
Description: In order to measure the effect of suppressing the expression of PGE-2 which is a skin inflammatory factor of 1,3-dicaffeoylquinic acid, 1,5-dicaffeoylquinic acid and amentoflavone of the present invention, ELISA (Enzyme Linked ImmunoSorbent Assay) was performed (S E Dunsmore, et al., J Biol Chem, 271: 24576-24582, 1996).
5×10^4 cells of keratinocytes isolated from human epidermal tissue were put in each well of a 24-well plate and immobilized for 24 hours. The culture medium was replaced with a medium not containing FBS and treated with aspirin to remove the activity of prostaglandin biosynthetic enzyme (prostaglandin H2 synthetase, or cyclooxygenase). Two hours after aspirin treatment, each well containing keratinocytes was washed twice with PBS to which 100 μl of PBS was added to each well. The keratinocytes were exposed to […] of ultraviolet radiation under an ultraviolet B (UV B) lamp (Model: F15T8, UV B15W, Sankyo Dennki, Japan). Each well was removed of PBS and supplied with 250 ul of the keratinocyte growth media (Clonetics BioWhittacker, MD, USA).
Here, the substances 1,3-dicaffeoylquinic acid, 1,5-dicaffeoylquinic acid and amentoflavone were treated at a dose of 2 μg/ml, followed by culturing for 16 hours. By taking an appropriate amount of culture supernatant and quantifying PGE-2 biosynthesized for 16 hours, the prostaglandin inhibitory effects of 1,3-dicaffeoylquinic acid, 1,5-dicaffeoylquinic acid and amentoflavone was evaluated. The expression inhibitory effect of PGE-2 was calculated by the following mathematical formula 1, and the results are shown in Table 4 below.
Expression inhibition rate of PGE-2(%)=(A−B)/A*100 [Mathematical Formula 1]
A: Absorbance of well to which test substance was not added
B: Absorbance of the well to which test substance was added

procollagen type(I) = assay: Promotion of collagen biosynthesis in fibroblasts (procollagen type(I) ELISA); assay type: cell-based; details: 2 μg/ml, 24 hours, untreated group as 100
Description: The collagen biosynthesis promoting effect of 1,3-dicaffeoylquinic acid, 1,5-dicaffeoylquinic acid and amentoflavone used in the present invention was measured in comparison with TGF-β.
First, 1×10^5 cells of fibroblasts were seeded in each well of a 24-well plate and cultured until they grew to about 90%. This was cultured in a serum-free DMEM medium for 24 hours and then treated with 2 μg/ml of 1,3-dicaffeoylquinic acid, 1,5-dicaffeoylquinic acid, amentoflavone and TGF-β, respectively, and cultured for 24 hours in a CO2 incubator. These supernatant fluids were removed and the procollagen type(I) ELISA kit was used to observe whether procollagen was increased or decreased. The results are shown in Table 6, and the collagen synthesis ability was compared with the untreated group as 100.

skin pore size = assay: Effect of reducing skin pores in rhino mice; assay type: in vivo; details: 0.5 ml of 1% solution applied to rhino mice for 1 week; control group (solvent) 65
Description: At this time, for comparison, only 0.5 ml of solvent was applied to one group. The substances were treated for 1 week and the back part was biopsied 24 hours after the last treatment. The epidermis was separated, immersed in 0.5% acetic acid, fixed in 10% formalin and cut vertically at […]. After staining with hematoxylin and eosin, the skin pore size was measured using a mechanical eyepiece micrometer.

B antigen (ABH antigen) = assay: Effect of increasing the expression of B antigen in HaCaT cell line (western blot); assay type: cell-based; details: HaCaT cells, 2 μg/ml, 48 hours; for expression of B type antigen: western blot, FIG. 2; for expression of ABH antigen: data not shown
Description: The effect of various kinds of compounds on the expression of ABH antigen was examined. For this purpose, HaCaT cells (provided by Prof. Dr. N E Fusenig, DKFZ Heidelberg, Germany) were cultured in 10% FBS-DMEM for 24 hours in a 35 mm dish and then cultured in 0% FBS-DMEM for 24 hours to make to a starvation state.
Again, while replacing the medium with 0% FBS-DMEM, various kinds of compounds as test substances were treated with HaCaT cells at a concentration of 2 μg/ml, respectively, and cultured for 48 hours. At this time, for comparison, the control group was treated with DMSO at the same concentration as the sample. […] In case where these three compounds were treated, proteins were extracted from the cells, the cell lysate was loaded in the same amount, and then the expression of type B antigen was examined by western blot. Alpha-tubulin protein was used as a control group.

Row | Compound | Conversion rate (%) (5α-reductase) | ROS, ratio to the ROS of the control group, 0 hr [1] | ROS, ratio to the ROS of the control group, 2 hrs [1] | ROS, ratio to the ROS of the control group, 3 hrs [1] | PGE-2 expression inhibition rate(%) (PGE-2) | Collagen synthesis ability (%) (procollagen type(I)) | Skin Pore size (µm) (skin pore size) | Inhibition rate (%) (5α-reductase) | expression of B type antigen (B antigen (ABH antigen)) | expression of ABH antigen (B antigen (ABH antigen)) | inhibition at 2 µg/mL (5α-reductase; HEK2935, read-out: Inhibition rate (%))
1 | CC(C)(C)NC(=O)[C@H]1CC[C@H]2[C@@H]3CC[C@H]4NC(=O)C=C[C@]4(C)[C@H]3CC[C@]12C [Finasteride, finasteride, reference compound] | 27% |  |  |  |  |  |  |  |  |  | 
2 | O=C(/C=C/c1ccc(O)c(O)c1)O[C@@H]1C[C@](OC(=O)/C=C/c2ccc(O)c(O)c2)(C(=O)O)C[C@@H](O)[C@H]1O [1,5-dicaffeoylquinic acid] | 30% | 100 | 280 | 315 | 32.5% | 144.2 ± 11.0% | 54 µm | 38% | increasing the expression of B type antigen | significantly increase the expression of ABH antigen | 
3 | O=c1cc(-c2ccc(O)c(-c3c(O)cc(O)c4c(=O)cc(-c5ccc(O)cc5)oc34)c2)oc2cc(O)cc(O)c12 [amentoflavone] | 32% | 100 | 288 | 320 | 30.9% | 147.7 ± 15.8% | 50 µm |  | increasing the expression of B type antigen | significantly increase the expression of ABH antigen | 33%
4 | O=C(/C=C/c1ccc(O)c(O)c1)OC1CC(OC(=O)/C=C/c2ccc(O)c(O)c2)(C(=O)O)CC(O)C1O (centres unmarked) [1,3-dicaffeoylquinic acid] | 30% | 100 | 277 | 319 | 28.1% | 142.1 ± 13.1% | 53 µm | 38% | increasing the expression of B type antigen | significantly increase the expression of ABH antigen | 
5 | O=C(O[C@@H]1Cc2c(O)cc(O)cc2O[C@@H]1c1cc(O)c(O)c(O)c1)c1cc(O)c(O)c(O)c1 [EGCG, reference compound] |  |  |  |  |  |  | 60 µm |  |  |  | 
